Results reported in ChEMBL document CHEMBL5230107, “Anticancer boron-containing prodrugs responsive to oxidative stress from the tumor microenvironment” (Eur J Med Chem, 2020).

Key:
U-937 = assay: Antiproliferative activity against human U-937 cells assessed as reduction in cell viability; type: functional
MV4-11 = assay: Antiproliferative activity against human MV4-11 cells assessed as reduction in cell viability; type: functional
NIH3T3 [1] = assay: Cytotoxicity against mouse NIH3T3 cells assessed as reduction in cell viability; type: functional, cell-based
4T1 [2] = assay: Antitumor activity against mouse 4T1 cells implanted in mouse assessed as reduction in tumor volume at 37 mg/kg, iv; type: functional; design: scale not given: the % may be the effect or the level left
4T1 [3] = assay: Cytotoxicity against mouse 4T1 cells assessed as reduction in cell viability; type: functional, cell-based
MCF7 [4] = assay: Antitumor activity against human MCF7 cells xenografted in mouse assessed as tumor regression at 5 mg/kg, po; type: functional
SR = assay: Antiproliferative activity against human SR cells assessed as growth inhibition at 10 uM relative to control; type: functional; design: scale not given: the % may be the effect or the level left
NCI-H460 = assay: Antiproliferative activity against human NCI-H460 cells assessed as growth inhibition at 10 uM relative to control; type: functional; design: scale not given: the % may be the effect or the level left
DU-145 [5] = assay: Antitumor activity against human DU-145 cells implanted in mouse assessed as reduction in tumor volume at 2 mg/kg, po; type: functional; design: scale not given: the % may be the effect or the level left
DU-145 [6] = assay: Antiproliferative activity against human DU-145 cells assessed as reduction in cell viability; type: functional, cell-based
NIH3T3 [7] = assay: Antiproliferative activity against mouse NIH3T3 cells assessed as reduction in cell viability; type: functional, cell-based
[8] = tested on: Panel NCI-60 (60 carcinoma cell lines); assay: Cytotoxicity against human Panel NCI-60 (60 carcinoma cell lines); type: functional, cell-based
HL-60 = assay: Cytotoxicity against human HL-60 cells assessed as inhibition of cell growth; type: functional, cell-based
A549 = assay: Cytotoxicity against human A549 cells assessed as reduction in cell viability by Almar Blue stained fluorescence-based assay; type: functional
HeLa [9] = assay: Cytotoxicity against human HeLa cells assessed as reduction in cell viability by Almar Blue stained fluorescence-based assay; type: functional
MDA-MB-231 = assay: Cytotoxicity against human MDA-MB-231 cells assessed as reduction in cell viability by Almar Blue stained fluorescence-based assay; type: functional
NCI-H1993 = assay: Cytotoxicity against human NCI-H1993 cells assessed as inhibition of cell growth; type: functional, cell-based
HeLa [10] = assay: Antiproliferative activity against human HeLa cells assessed as reduction in cell viability at 100 uM; type: functional
B16-F10 [11] = assay: Antitumor activity against mouse B16-F10 cells implanted in mouse assessed as increase in survival time at 0.25 mg/kg, po; type: functional
B16-F10 [12] = assay: Antiproliferative activity against mouse B16-F10 cells assessed as reduction in cell viability at 100 uM; type: functional
HeLa [13] = assay: Cytotoxicity against human HeLa cells assessed as inhibition of cell growth; type: functional, cell-based
[14] = Antiproliferative activity against human U-87 MG cells assessed as reduction in cell viability; type: functional, cell-based, U-87MG ATCC
MIA PaCa-2 = assay: Cytotoxicity against human MIA PaCa-2 cells assessed as inhibition of cell growth measured after 72 hrs by MTS assay; type: functional, cell-based; conditions: MIA PaCa-2, 72 h
[15] = Antiproliferative activity against human Nasopharyngeal carcinoma cell line assessed as reduction in cell viability measured for 72 hrs by CCK-8 assay; type: functional, cell-based
BXPC-3 = assay: Antiproliferative activity against human BXPC-3 cells assessed as reduction in cell viability measured for 72 hrs by CCK-8 assay; type: functional, cell-based; conditions: BXPC-3, 72 h
PSN1 = assay: Antiproliferative activity against human PSN1 cells assessed as reduction in cell viability measured for 72 hrs by CCK-8 assay; type: functional, cell-based; conditions: PSN1, 72 h
[16] = Cytotoxicity against human MRC5 cells assessed as reduction in cell viability by Almar Blue stained fluorescence-based assay; type: toxicity
MCF7 [17] = assay: Antitumor activity against human MCF7 cells xenografted in BALB/c nude mouse assessed as tumor growth inhibition at 10 mg/kg, iv; type: functional; conditions: read-out: TGI

Q: Which Activity (U-937) does the source give for O=C(CCCCCCC(=O)Nc1ccccc1)NOCc1ccc(B(O)O)cc1 here?
A: Its Activity is 20%.

Q: What about the Activity (MV4-11) of the same compound?
A: Its Activity is 20%.

Q: What does the source list for CCN(CC)C(=S)SCc1ccc(B2OC(C)(C)C(C)(C)O2)cc1?
A: IC50 (NIH3T3 [1]): 6 µM; Activity (4T1 [2]): 80%; IC50 (4T1 [3]): 1 µM

Q: For COc1cccc2c1C(=O)c1c(O)c3c(c(O)c1C2=O)C[C@@](O)(C(=O)CO)C[C@@H]3O[C@H]1C[C@H](NC(=O)OCc2ccc(B3OC(C)(C)C(C)(C)O3)cc2)[C@H](O)[C@H](C)O1, which Activity (MCF7 [4]) is on record?
A: The Activity was 30%.

Q: With CC1(C)OB(c2ccc(C[N+](C)(CCCl)CCCl)cc2)OC1(C)C.[Br-] as the compound, how does the Activity (SR) read?
A: The Activity was 85%.

Q: What about the Activity (NCI-H460) of the same compound?
A: Its Activity is 85%.

Q: With CC1(COC(=O)OCc2ccc(B3OCCCO3)cc2)COC(/C=C/c2ccccc2)OC1 (centres undefined) as the compound, how does the Activity (DU-145 [5]) read?
A: Its Activity is 75%.

Q: What about the IC50 (DU-145 [6]) of the same compound?
A: The IC50 was 48 µM.

Q: What about the IC50 (NIH3T3 [7]) of the same compound?
A: Its IC50 is 182 µM.

Q: With COc1cc(CBr)c(B2OC(C)(C)C(C)(C)O2)c(CBr)c1 as the compound, how does the IC50 [8] read?
A: The IC50 was 10 µM.

Q: Which IC50 (HL-60) does the source give for CN(Cc1cnc2nc(N)nc(NC(=O)OCc3ccc(B(O)O)cc3)c2n1)c1ccc(C(=O)N[C@H](CCC(=O)O)C(=O)O)cc1 here?
A: The IC50 was 0.05 µM.

Q: What does the source list for CCN(CC)/[N+]([O-])=N/OCc1cc2ccc(B3OC(C)(C)C(C)(C)O3)cc2oc1=O?
A: IC50 (A549): 10 µM; IC50 (HeLa [9]): 10 µM; IC50 (MDA-MB-231): 10 µM

Q: For C[C@@H](Oc1cc(-c2cnn(C3CCNCC3)c2)cnc1NC(=O)OCc1ccc(B(O)O)cc1)c1c(Cl)ccc(F)c1Cl, which IC50 (NCI-H1993) is on record?
A: The IC50 was 3 µM.

Q: What does the source list for CC[C@@]1(O)C(=O)OCc2c1cc1n(c2=O)Cc2cc3cc(OC(=O)OCc4cc5ccc(B(O)O)cc5oc4=O)ccc3nc2-1?
A: Activity (HeLa [10]): 60%; Time (B16-F10 [11]): 1 days; Activity (B16-F10 [12]): 60%

Q: Which IC50 (HeLa [13]) does the source give for COc1cccc2c1C(=O)c1c(O)c3c(c(O)c1C2=O)C[C@@](O)(C(=O)CO)C[C@@H]3O[C@H]1C[C@H](NCC(=O)OCc2cc(C)cc(COC(=O)c3ccc(C(=C(c4ccccc4)c4ccccc4)c4ccccc4)cc3)c2OCc2ccc(B3OC(C)(C)C(C)(C)O3)cc2)[C@H](O)[C@H](C)O1 here?
A: The IC50 was 2 µM.

Q: Which IC50 [14] does the source give for CC[C@@]1(O)C(=O)OCc2c1cc1n(c2=O)Cc2cc3ccccc3nc2-1 [CAMPTOTHECIN] here?
A: Its IC50 is 0.25 µM.

Q: For C[C@@H](Oc1cc(-c2cnn(C3CCNCC3)c2)cnc1N)c1c(Cl)ccc(F)c1Cl [CRIZOTINIB], which IC50 (NCI-H1993; Homo sapiens, NCI-H1993, read-out: IC50) is on record?
A: Its IC50 is 3 µM.

Q: What does the source list for COc1cccc2c1C(=O)c1c(O)c3c(c(O)c1C2=O)C[C@@](O)(C(=O)CO)C[C@@H]3O[C@H]1C[C@H](N)[C@H](O)[C@H](C)O1 [DOXORUBICIN]?
A: Activity (MCF7 [4]): 50%; IC50 (MIA PaCa-2): 0.2 µM

Q: Which IC50 [15] does the source give for Nc1ccn([C@@H]2O[C@H](CO)[C@@H](O)C2(F)F)c(=O)n1 [GEMCITABINE] here?
A: The IC50 was 0.005 µM.

Q: What about the IC50 (BXPC-3) of the same compound?
A: The IC50 was 0.005 µM.

Q: What about the IC50 (PSN1) of the same compound?
A: Its IC50 is 0.005 µM.

Q: What does the source list for CC[C@@]1(O)C(=O)OCc2c1cc1n(c2=O)Cc2cc3cc(O)ccc3nc2-1 [HYDROXYCAMPTOTHECIN]?
A: Activity (HeLa [10]): 60%; Activity (B16-F10 [12]): 60%

Q: Which IC50 [16] does the source give for CC(=O)O[C@H]1C(=O)[C@@]2(C)[C@H]([C@H](OC(=O)c3ccccc3)[C@]3(O)C[C@H](OC(=O)[C@H](O)[C@@H](NC(=O)c4ccccc4)c4ccccc4)C(C)=C1C3(C)C)[C@]1(OC(C)=O)CO[C@@H]1C[C@@H]2O [PACLITAXEL] here?
A: The IC50 was 25 µM.

Q: And the inhibition in vivo at 10 mg/kg (MCF7 [17])?
A: The inhibition in vivo at 10 mg/kg was 60%.

Q: For O=C(CCCCCCC(=O)Nc1ccccc1)NO [VORINOSTAT], which Activity (U-937) is on record?
A: The Activity was 20%.

Q: And the Activity (MV4-11)?
A: The Activity was 20%.
